From patent US20240391912A1, “MORPHIC FORMS OF CFT7455 AND METHODS OF MANUFACTURE THEREOF” (C4 THERAPEUTICS, INC., priority 2022, published 2024)
Values after ≈ are worked out from the molar mass of the structure shown. “Also recorded” adds a separate entry of the source.

Columns and labels:
Assay type in all cases: physicochemical
[1] = Water activity study of Compound 1 Form I at 25° C. for 1 week; conditions: for change of morphic form in solvents with high water content (water activity study): acetone/water, DMSO/water, pure water, 25° C.
Experimental: Water activity experiments were conducted at 25° C. in 7 different water activities solvent mixtures to determine critical water activity of Compound 1 Form I. About 20 mg of Compound 1 Form I was added to 1.0 mL of acetone/water or DMSO/water mixtures and stirred at 400 rpm and 25° C. for 1 week.

[2] = Behavior of Compound 1 Form I under heating and cooling (DSC cycles); conditions: for Melting onset: reheat to 300° C. at 10° C./min
Experimental: Polymorphic behavior of Compound 1 Form I (free form) was investigated by two different heating-cooling cycles of DSC. The results were summarized in Table 6. • HCH1: 30° C. to 300° C. at 10° C./min; 300° C. to −20° C. at 20° C./min; reheat to 300° C. at 10° C./min. • HCH2: 30° C. to 300° C. at 10° C./min; 300° C. to −20° C. at 2° C./min; reheat to 300° C. at 10° C./min.

[3] = Equilibration of Compound 1 Form I with solvents at 50° C. for 1 week (XRPD)
Experimental: About 50 mg of Compound 1 Form I (free form) was equilibrated in 1 mL of solvent at 50° C. for 1 week with a stirring plate. The obtained suspension was filtered and the solid part (wet cake) was investigated by XRPD.

[4] = Precipitation of Compound 1 by addition of anti-solvent to DMSO solution (XRPD, residual solvent); conditions: for residual DMSO: 1H-NMR after vacuum drying at 80° C. for 2 hours; for Notes (appearance) / XRPD: solvent DMSO
Experimental: About 20 mg of Compound 1 Form I (free form) was dissolved in DMSO and anti-solvent was added into the obtained solution slowly. Precipitates were collected by filtration. The solid part (wet cake) was investigated by XRPD. Residual solvent of these solids was also analyzed by ^1H-NMR after vacuum dried at 80° C. for 2 hours.

[5] = Equilibration of Compound 1 Form I with solvents at 25° C. for 2 weeks (XRPD)
Experimental: About 30 mg of Compound 1 Form I (free form) was equilibrated in 1 mL of solvent at 25° C. for 2 weeks with a stirring plate. The obtained suspension was filtered. The solid part (wet cake) was investigated b XRPD.

[6] = Crystallization of Compound 1 at room temperature by slow evaporation (XRPD)
Experimental: About 20 mg of Compound 1 Form I (free form) was dissolved and filtered by 0.45 μm nylon filter. Obtained solutions were evaporated slowly at ambient condition. Solid residues were examined for their polymorphic form.

[7] = Approximate solubility of Compound 1 Form I at 25° C. and 50° C. (visual observation); conditions: thermodynamic from solid
Experimental: Max. volume of each solvent added was 1 mL. Approximate solubility was determined by visual observation.

[8] = Scale-up experiment (200 mg) and characterization of new polymorphs of Compound 1
Experimental: Scale-up 1: About 200 mg of Compound 1 Form I was dissolved in 10 mL THF/Water (95:5, v:v) at 40° C. […] Compound 1 Form IV was obtained. It was subjected to characterization.
Scale-up 2: About 200 mg of Compound 1 Form I was dissolved in 10 mL THF/Water (95:5, v:v) at 40° C. […] It was subjected to characterization.

[9] = solids after equilibration in EtOH
[10] = anti-solvent Water, about 2 mg of seeds added
[11] = solids after equilibration in EtOH, 25° C., 2 weeks

## O=C1CC[C@H](N2C(=O)c3cccc4c(Cc5ccc(CN6CCOCC6)cc5)ccc2c34)C(=O)N1 [Compound 1 Form I, (S)-3-(6-(4-(morpholinomethyl)benzyl)-2-oxobenzo[cd]indol-1(2H)-yl)piperidine-2,6-dione]
[1]; Acetone, a.w. 0, 25° C.
  XRPD: Form I
[1]; Acetone/Water (91:9, v:v), a.w. 1, 25° C.
  XRPD: Form I
[1]; Acetone/Water (94:6, v:v), a.w. 0.5, 25° C.
  XRPD: Form I
[1]; Acetone/Water (97:3, v:v), a.w. 0.3, 25° C.
  XRPD: Form I
[1]; Acetone/Water (99:1, v:v), a.w. 0.1, 25° C.
  XRPD: Form I
[1]; DMSO/Water (64:36, v:v), a.w. 0.5, 25° C.
  XRPD: Form I
[1]; Water, a.w. 1, 25° C.
  XRPD: Form I
[1]
  change of morphic form in solvents with high water content (water activity study): no significant changes to the morphic form
[1]; listed as Form I
  change of morphic form in solvents with high water content (water activity study): only Form I was obtained
[2]; HCH1: 30° C. to 300° C. at 10° C./min, 300° C. to −20° C. at 20° C./min
  Melting onset: Melting onset 231.4° ° C.
[2]; HCH1: cooling 300° C. to −20° C. at 20° C./min
  enthalpy: C.; enthalpy 115 J/g
[2]; HCH2: 30° C. to 300° C. at 10° C./min, 300° C. to −20° C. at 2° C./min
  Melting onset: Melting onset 231.3° ° C.
[2]; HCH2: cooling 300° C. to −20° C. at 2° C./min
  enthalpy: C.; enthalpy 108 J/g
[3]; equilibration in ACN
  XRPD: Form I
[3]; equilibration in Acetone
  XRPD: Form I
[3]; equilibration in DCM
  XRPD: Form I
[3]; equilibration in DCM:MeOH (v:v = 1:1)
  XRPD: Form I
[3]; equilibration in DCM:THF(v:v = 8:2)
  XRPD: Form I
[3]; equilibration in EA
  XRPD: Form I
[3]; equilibration in EtOH
  XRPD: Form I
[3]; equilibration in MeOH
  XRPD: Form I
[3]; equilibration in THF, wet cake
  XRPD: Form I
[3]; equilibration in THF:Water (v:v = 95:5)
  XRPD: Form I
[3]; [9]
  Melting onset: Melting onset: 239.5° C.,
  enthalpy: enthalpy: 109 J/g
  residual DCM: 0.4% residual DCM
[4]; DMSO/EtOH precipitate
  residual DMSO: 0.05 equiv. residual
[4]; DMSO/MeOH precipitate
  residual DMSO: 0.14 equiv. residual
[4]; DMSO/Water precipitate
  residual DMSO: 0.90 equiv. residual
[4]; anti-solvent Acetone, held at 5° C. for 2 days, no solid obtained
  Notes (appearance): Clear solution^a
[4]; anti-solvent EtOAc
  Notes (appearance): Clear solution
[4]; anti-solvent EtOH
  Notes (appearance): Suspension
  XRPD: −
[4]; anti-solvent MeOH
  Notes (appearance): Suspension
[4]; anti-solvent MeOH, wet cake
  XRPD: −
[4]; anti-solvent Water
  Notes (appearance): Suspension
  XRPD: −
[4]; [10]
  Notes (appearance): Suspension^b
  XRPD: −
[5]; alone in water / pure water
  stability of the form in water (equilibration experiments): very stable; also recorded: stable
[5]; equilibration in ACN, 25° C., 2 weeks
  XRPD: Form I
[5]; equilibration in Acetone, 25° C., 2 weeks
  XRPD: Form I
[5]; equilibration in DCM, 25° C., 2 weeks
  XRPD: Form I
[5]; equilibration in DCM:MeOH (v:v = 1:1), 25° C., 2 weeks
  XRPD: Form I
[5]; equilibration in DCM:THF(v:v = 8:2), 25° C., 2 weeks
  XRPD: Form I
[5]; equilibration in EA, 25° C., 2 weeks
  XRPD: Form I
[5]; equilibration in EtOH, 25° C., 2 weeks
  XRPD: Form I
[5]; equilibration in MeOH, 25° C., 2 weeks
  XRPD: Form I
[5]; equilibration in THF, 25° C., 2 weeks, wet cake
  XRPD: Form I
[5]; equilibration in THF:Water (v:v = 95:5), 25° C., 2 weeks
  XRPD: Form I
[5]; [11]
  Melting onset: Melting onset: 239.0° C.,
  enthalpy: enthalpy: 107 J/g
  residual DCM: 0.4% residual DCM
[6]; slow evaporation from DCM
  Notes (form obtained): Form I
[6]; slow evaporation from DCM at ambient condition
  XRPD (form change): −
[6]; slow evaporation from MeOH/DCM(v:v = 1:1)
  Notes (form obtained): Form II
[6]; slow evaporation from MeOH/DCM(v:v = 1:1) at ambient condition
  XRPD (form change): + (Form changed detected.)
[6]; slow evaporation from THF
  Notes (form obtained): Form III
[6]; slow evaporation from THF at ambient condition
  XRPD (form change): + (Form changed detected.)
[6]; slow evaporation from THF:Water (v:v = 95:5)
  Notes (form obtained): Form III
[6]; slow evaporation from THF:Water (v:v = 95:5) at ambient condition
  XRPD (form change): + (Form changed detected.)
[7]; DCM, 25 °C, organic solvent or mixture
  solubility: 8000 to 13000 µg/mL (≈ 17 to 27.7 mM)
[7]; DCM, 50 °C, organic solvent or mixture
  solubility: 16000 to 25000 µg/mL (≈ 34.1 to 53.2 mM)
[7]; DCM:MeOH (v:v = 1:1), 25 °C, organic solvent or mixture, DCM:MeOH (v:v = 1:1), 25° C.
  solubility: 17000 to 20000 µg/mL (≈ 36.2 to 42.6 mM)
[7]; DCM:MeOH (v:v = 1:1), 50 °C, organic solvent or mixture, DCM:MeOH (v:v = 1:1), 50° C.
  solubility: 29000 to 33000 µg/mL (≈ 61.8 to 70.3 mM)
[7]; DMSO, 25 °C, organic solvent or mixture
  solubility: 83000 to 125000 µg/mL (≈ 177 to 266 mM)
[7]; DMSO, 25 °C, organic solvent or mixture, in DMSO, solubilized at about 25° C.
  solubility: ≥ 50000 µg/mL
[7]; DMSO, 50 °C, organic solvent or mixture
  solubility: 167000 to 250000 µg/mL (≈ 356 to 532 mM)
[7]; Ethanol:Water (8:2, v:v), 25 °C, organic solvent or mixture, Ethanol:Water (8:2, v:v), 25° C.
  solubility: < 5000 µg/mL
[7]; Ethanol:Water (8:2, v:v), 50 °C, organic solvent or mixture, Ethanol:Water (8:2, v:v), 50° C.
  solubility: < 10000 µg/mL
[7]; MTBE, 25 °C, organic solvent or mixture
  solubility: < 5000 µg/mL
[7]; MTBE, 50 °C, organic solvent or mixture
  solubility: < 10000 µg/mL
[7]; THF, 25 °C, organic solvent or mixture
  solubility: 8000 to 13000 µg/mL (≈ 17 to 27.7 mM)
[7]; THF, 50 °C, organic solvent or mixture
  solubility: 16000 to 25000 µg/mL (≈ 34.1 to 53.2 mM)
[7]; THF:Water (v:v = 95:5), 25 °C, organic solvent or mixture, THF:Water (v:v = 95:5), 25° C.
  solubility: 17000 to 20000 µg/mL (≈ 36.2 to 42.6 mM)
[7]; THF:Water (v:v = 95:5), 50 °C, organic solvent or mixture, THF:Water (v:v = 95:5), 50° C.
  solubility: 40000 to 50000 µg/mL (≈ 85.2 to 106 mM)
[7]; acetone, 25 °C, organic solvent or mixture
  solubility: < 5000 µg/mL
[7]; acetone, 50 °C, organic solvent or mixture
  solubility: < 10000 µg/mL
[7]; acetonitrile, 25 °C, organic solvent or mixture
  solubility: < 5000 µg/mL
[7]; acetonitrile, 50 °C, organic solvent or mixture
  solubility: < 10000 µg/mL
[7]; ethanol, 25 °C, organic solvent or mixture
  solubility: < 5000 µg/mL
[7]; ethanol, 50 °C, organic solvent or mixture
  solubility: < 10000 µg/mL
[7]; ethyl acetate, 25 °C, organic solvent or mixture
  solubility: < 5000 µg/mL
[7]; ethyl acetate, 50 °C, organic solvent or mixture
  solubility: < 10000 µg/mL
[7]; heptane, 25 °C, organic solvent or mixture
  solubility: < 5000 µg/mL
[7]; heptane, 50 °C, organic solvent or mixture
  solubility: < 10000 µg/mL
[7]; methanol, 25 °C, organic solvent or mixture, approximate, visual observation
  solubility: < 5000 µg/mL
[7]; methanol, 50 °C, organic solvent or mixture, approximate, visual observation
  solubility: < 10000 µg/mL
[7]; water, 25 °C
  solubility: < 5000 µg/mL
[7]; water, 50 °C
  solubility: < 10000 µg/mL
[8]; 1H-NMR, listed as Form I
  Stoichiometry: DCM: 0.6% DCM
[8]; DSC, 10° C./min
  DSC enthalpy: enthalpy 114 J/g
  DSC melting onset: 233.9° C.;
[8]; TGA, 10° C./min, at 225° C.
  Thermogravimetry weight loss: About 2.0%
